Values joined by “and” are separate entries in the source; they are usually repeats but may differ in a detail not shown here. Equal values may be shown once. Where a name gives a salt, the structure may show the parent alone.
Assays:
in vitro = conditions: human, SK-HEP-1 cells
SK-HEP-1 cells [1] = assay: NACCbl protection from homocysteine with inhibition of Hsp32/Hsp70 by Sn(IX) protoporphyrin, quercitin or siRNA (MTS assay); conditions: listed as Hcy
Hsp70 = Hsp70 gene expression (RT-PCR, densitometry); conditions: SK-HEP-1, 30 μM, 2 hr
Procedure: (§1) Cells were plated into 6-, 12-, or 24-well cell culture clusters, at 2×10^3, 2×10^5, or 1×10^5 cells per well and incubated until 90% confluent. Treatments were applied as above.
(§2) Following incubation, cells were subjected to mRNA extraction followed by cDNA synthesis for each sample under test. Polymerase chain reaction cDNA templates were prepared for simplex PCR protocol. PCR products were then visualized using a UV Transilluminator and images captured using a Kodak ID gel imaging system. Densitometry and statistical analysis was then performed on each gene expression band image using PSP® v 10.0 running under Windows XP®.
(§3) mRNA extraction was performed using the Quickprep micro mRNA Purification Kit. Following incubation of cells post-treatment, the media was removed from the cells, adherent cells were re-suspended in 0.4 ml extraction buffer and 0.8 ml elution buffer at 65° C. was added.
A reaction mixture was prepared in individual microcentrifuge tubes containing 2 cDNA synthesis beads, 32 μl of the mRNA solution and 1 μl of pd(N)6. This mixture was incubated at 37° C. in a water bath for 60 minutes. After incubation, 27 μl of RNase-free DEPC treated water was added to each tube to make a total volume 60 μl. cDNA samples were prepared in duplicate. Sample 1 was used immediately in RT-PCR protocol.
Microcentrifuge tubes from puReTaq™Ready-To-Go™ PCR Beads containing one PCR bead were labeled for each sample required. Added to the PCR bead were 17 μl of RNase-free DEPC treated water, 1 μl sense primer, 1 μl anti-sense primer and 5 μl of the cDNA solution. RT-PCR conditions were as follows: Hsp70 and β-actin, pre-treatment step, 94° C. for 1 minute, followed by denaturing at 92° C. for 1 minute, annealing at 60° C. for 1 minute and extension at 72° C. for 1 minute. Total cycles, 30, post-treatment was then carried out at 72° C. for 10 minutes. For Hsp32, pre-treatment step, 95° C. for 2 minutes, followed by denaturing at 94° C. for 30 seconds, annealing at 58° C. for 1 minute and extension at 72° C. for 1 minute. […]

Hsp32 = Hsp32 gene expression (RT-PCR, densitometry); type: cell-based, human
Procedure: as §1, §2, §3
A reaction mixture was prepared in individual microcentrifuge tubes containing 2 cDNA synthesis beads, 32 μl of the mRNA solution and 1 μl of pd(N)6. This mixture was incubated at 37° C. in a water bath for 60 minutes. After incubation, 27 μl of RNase-free DEPC treated water was added to each tube to make a total volume 60 μl. cDNA samples were prepared in duplicate. Sample 1 was used immediately in RT-PCR protocol. Sample 2 was prepared for qPCR protocol by the addition of 150 μl of 95% ice-cold ethanol and stored at −20° C.
Microcentrifuge tubes from puReTaq™Ready-To-Go™ PCR Beads containing one PCR bead were labeled for each sample required. Added to the PCR bead were 17 μl of RNase-free DEPC treated water, 1 μl sense primer, 1 μl anti-sense primer and 5 μl of the cDNA solution. RT-PCR conditions were as follows: Hsp70 and β-actin, pre-treatment step, 94° C. for 1 minute, followed by denaturing at 92° C. for 1 minute, annealing at 60° C. for 1 minute and extension at 72° C. for 1 minute. Total cycles, 30, post-treatment was then carried out at 72° C. for 10 minutes. For Hsp32, pre-treatment step, 95° C. for 2 minutes, followed by denaturing at 94° C. for 30 seconds, annealing at 58° C. for 1 minute and extension at 72° C. for 1 minute. Total cycles 45, post treatment was then carried out at 72° C. for 10 minutes. Following RT-PCR, samples were stored at −20° C.
Gels were visualised on a UV Transilluminator. Photographs were stored using a Kodak Digital camera system fitted with a UV filter set connected to a PC. Images were then transferred to the Kodak ID gel imaging system. Densitometry was performed on each gene expression band using PSP™ v10 running under Windows XP®.
Experiments were conducted using Hsp32 and Hsp 70 gene expression as the basis for study. […] The densitometric data are presented as means ±SEM of n=3 separate experiments. *p<0.05 or **p<0.01, treatment vs. control.

SK-HEP-1 cells [2] = assay: Effect of homocysteine and H2O2 on endothelial cell viability (MTS assay); conditions: for Normalized Data Log 2, Mean / Normalized Data Log 10, Mean: Hcy alone, n = 6; for Cell viability (MTS assay): SK-HEP-1, 2 hours, n = 6 replicates
SK-HEP-1 cells [3] = assay: Protection of endothelial cells from homocysteine-induced cell death (MTS assay); type: cell-based, human
Procedure: The effect of a constant concentration of NACCbl and GSCbl to protect cells against variable concentrations of homocysteine was assessed. […] Cell viability was determined by MTS® assay. Data shown in FIG. 4 are representative of means ±SE of 6 independent samples. FIG. 4 illustrates that NACCbl (▪) and GSCbl (▴) protect endothelial cells from the effect of homocysteine. […] Cell viability was determined by MTS® assay. […] There was a decrease in protection as homocysteine concentration increased, but there was still ˜60% survival at 50 μM homocysteine.
The data was normalized (log 2 and log 10) as shown in FIGS. 16 and 17 and Tables 16 and 17, respectively, below.

SK-HEP-1 cells [4] = assay: Protection from homocysteine-induced apoptosis, Caspase-3 activity (apoptosis assay); type: cell-based, human; conditions: 30 μM two hours, then 30 μM homocysteine two hours
Procedure: Caspase 3 is activated when cells undergo apoptosis. Caspase-3 assay is a standard for apoptosis assay. Homocysteine is a known inducer of apoptosis. Cells were cultured in 96-well plates for 24 hours and then treated with reagents under test conditions. Cytotoxic agents, H2O2 and etoposide were added to negative control wells. The assay was performed according to the manufacturer's protocol, as follows: Cells were re-suspended in 100 μl of clear media and 50 μl of Caspase-3 substrate solution was immediately added to each test well. […] Cell viability was determined by MTS® assay. […] Cell viability was determined by MTS® assay.

## NC(CCS)C(=O)O (racemic) [Homocysteine, DL-Homocysteine]
In vitro
  viability at 2 h, 0.781 µM: 99.8%
  viability at 2 h, 3.125 µM: 96%
SK-HEP-1 cells [1]; SK-HEP-1, NACCbl 30 μM two hours with or without Sn(IX)PP/quercetin, then Hcy conc. 200 two hours, label Hcy = Hcy alone
  Cell viability by MTS assay (FIG. 11), replicates 1-6: 0.33 and 0.312 and 0.39 and 0.302 and 0.421 and 0.406
SK-HEP-1 cells [1]; as E45, Hcy conc. 1.78
  Cell viability by MTS assay (FIG. 11), replicates 1-6: 1.746 and 1.932 and 1.95 and 1.83 and 1.837 and 1.884
SK-HEP-1 cells [1]; as E45, Hcy conc. 3.125
  Cell viability by MTS assay (FIG. 11), replicates 1-6: 1.543 and 1.487 and 1.656 and 1.63 and 1.593 and 1.558
SK-HEP-1 cells [1]; as E45, Hcy conc. 6.25
  Cell viability by MTS assay (FIG. 11), replicates 1-6: 1.304 and 1.406 and 1.227 and 1.176 and 1.15 and 1.119
SK-HEP-1 cells [1]; as E45, Hcy conc. 12.5
  Cell viability by MTS assay (FIG. 11), replicates 1-6: 1.104 and 1.001 and 1.042 and 1.114 and 1.324 and 1.479
SK-HEP-1 cells [1]; as E45, Hcy conc. 25
  Cell viability by MTS assay (FIG. 11), replicates 1-6: 0.692 and 0.956 and 0.876 and 0.882 and 0.937 and 0.74
SK-HEP-1 cells [1]; as E45, Hcy conc. 50
  Cell viability by MTS assay (FIG. 11), replicates 1-6: 0.678 and 0.881 and 0.602 and 0.77 and 0.724 and 0.779
SK-HEP-1 cells [1]; as E45, Hcy conc. 100
  Cell viability by MTS assay (FIG. 11), replicates 1-6: 0.654 and 0.449 and 0.466 and 0.501 and 0.522 and 0.51
Hsp70
  Hsp70 gene expression: increase in expression
Hsp32; SK-HEP-1, 30 μM, 2 hr
  Hsp32 gene expression: increase in expression
Hsp32; SK-HEP-1, Sn (IX) protoporphyrin 25 μM, Quercitin 15 μM
  Hsp32 gene expression: induced
SK-HEP-1 cells [2]; conc. 1.780
  Normalized Data Log 2, Mean: 59.351
  Normalized Data Log 10, Mean: 89.537
SK-HEP-1 cells [2]; conc. 3.125
  Normalized Data Log 2, Mean: 48.077
  Normalized Data Log 10, Mean: 73.700
SK-HEP-1 cells [2]; conc. 6.250
  Normalized Data Log 2, Mean: 34.347
  Normalized Data Log 10, Mean: 54.413
SK-HEP-1 cells [2]; conc. 12.500
  Normalized Data Log 2, Mean: 32.253
  Normalized Data Log 10, Mean: 51.471
SK-HEP-1 cells [2]; conc. 25.000
  Normalized Data Log 2, Mean: 19.208
  Normalized Data Log 10, Mean: 33.145
SK-HEP-1 cells [2]; conc. 50.000
  Normalized Data Log 2, Mean: 14.935
  Normalized Data Log 10, Mean: 27.142
SK-HEP-1 cells [2]; conc. 100.000
  Normalized Data Log 2, Mean: 6.164
  Normalized Data Log 10, Mean: 14.820
SK-HEP-1 cells [2]; conc. 200.000
  Normalized Data Log 2, Mean: −0.033
  Normalized Data Log 10, Mean: 6.115
SK-HEP-1 cells [2]; SK-HEP-1, 2 hours
  Concentration achieving greater than 90% death (<10% survival): 25 µM
SK-HEP-1 cells [2]; SK-HEP-1, 2 hours, p<0.001
  Concentration that killed cells: ≥ 5 µM
SK-HEP-1 cells [2]; 0.781 μM
  Cell viability (MTS assay): 98.11 and 102.5676 and 102.4576 and 98.72 and 98.39
SK-HEP-1 cells [2]; 1.562 μM
  Cell viability (MTS assay): 100.5319 and 102.4026 and 85.18 and 81.33 and 81.6 and 98.83
SK-HEP-1 cells [2]; 3.125 μM
  Cell viability (MTS assay): 91.62 and 82.82 and 78.3 and 80.94 and 91.78
SK-HEP-1 cells [2]; 6.25 μM
  Cell viability (MTS assay): 62.02 and 28.4 and 38.2485 and 48.6474 and 67.63 and 55.0298
SK-HEP-1 cells [2]; 25 μM
  Cell viability (MTS assay): 1.495 and 0.5044 and 0.1192
SK-HEP-1 cells [2]; 50 μM
  Cell viability (MTS assay): 0.2843 (2×) and 0.9445 and 1.44 and 3.255
SK-HEP-1 cells [3]; SK-HEP-1, NACCbl 30 μM, NAC 75 μM, Hcy conc. 200.000, n = 6, label Hcy = Hcy alone
  Absorbance at 490 nm, Mean: 0.360
SK-HEP-1 cells [3]; [Hcy] 30 μM, [NAC] = 45 μM, [NACCbl] = 12.5 μM, [Folate] = 25 μM where named in the label, label Hcy/HCy = Hcy alone
  Mean (FIG. 14, protection of SK-HEP-1 cells from Hcy): 0.616
SK-HEP-1 cells [3]; as E80, Hcy conc. 1.780
  Absorbance at 490 nm, Mean: 1.863
SK-HEP-1 cells [3]; as E80, Hcy conc. 3.125
  Absorbance at 490 nm, Mean: 1.578
SK-HEP-1 cells [3]; as E80, Hcy conc. 6.250
  Absorbance at 490 nm, Mean: 1.230
SK-HEP-1 cells [3]; as E80, Hcy conc. 12.500
  Absorbance at 490 nm, Mean: 1.177
SK-HEP-1 cells [3]; as E80, Hcy conc. 25.000
  Absorbance at 490 nm, Mean: 0.847
SK-HEP-1 cells [3]; as E80, Hcy conc. 50.000
  Absorbance at 490 nm, Mean: 0.739
SK-HEP-1 cells [3]; as E80, Hcy conc. 100.000
  Absorbance at 490 nm, Mean: 0.517

## CN1c2c(nc(N)[nH]c2=O)NC[C@@H]1CNc1ccc(C(=O)N[C@@H](CCC(=O)O)C(=O)O)cc1 [folate, 5-Methyltetrahydrofolic acid disodium salt]
SK-HEP-1 cells [4]
  Protection against apoptosis induced by homocysteine: partial protection
Hsp70
  Hsp70 gene expression: increase in expression
Hsp32; SK-HEP-1, 30 μM, 2 hr
  Hsp32 gene expression: increase in expression
